Assay results as given in US9394297B2, “Amides as pim inhibitors” (AMGEN INC., priority 2012, dated 2016).
Where a name gives a salt, the structure may show the parent alone. Read-outs that look alike come from different tables or passages of the source.

Key:
[1] = biological target: Pim-2 (Homo sapiens (Human), UniProt Q9P1W9); experiment: Pim-Mn enzyme assay (HTRF, 384-well), Pim-2; format: biochemical; conditions: read-out: Pim-2-Mn IC50 IP
[2] = biological target: Pim-1 (Homo sapiens (Human), UniProt P11309); experiment: Pim-Mn enzyme assay (HTRF, 384-well), Pim-1; format: biochemical; conditions: Pim-1 enzyme 5 pM, ATP 1.5 μM, BAD (S112) 0.5 μM, HTRF, 22-point curve; read-out: Pim-1-Mn IC50 IP
[3] = Pim-2 enzyme 0.5 pM, ATP 1.5 μM, BAD (S112) 0.5 μM, HTRF, 22-point curve

Sequence of Pim-2 (Q9P1W9 whole entry): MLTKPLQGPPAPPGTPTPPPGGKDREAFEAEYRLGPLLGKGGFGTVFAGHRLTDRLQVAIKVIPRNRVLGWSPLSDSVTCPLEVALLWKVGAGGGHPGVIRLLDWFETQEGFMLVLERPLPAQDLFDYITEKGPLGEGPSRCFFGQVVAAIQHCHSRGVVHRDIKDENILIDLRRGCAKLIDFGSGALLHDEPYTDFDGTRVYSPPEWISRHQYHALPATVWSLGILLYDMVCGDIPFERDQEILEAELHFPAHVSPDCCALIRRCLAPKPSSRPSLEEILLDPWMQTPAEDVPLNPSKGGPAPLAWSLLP
Sequence of Pim-1 (P11309 whole entry): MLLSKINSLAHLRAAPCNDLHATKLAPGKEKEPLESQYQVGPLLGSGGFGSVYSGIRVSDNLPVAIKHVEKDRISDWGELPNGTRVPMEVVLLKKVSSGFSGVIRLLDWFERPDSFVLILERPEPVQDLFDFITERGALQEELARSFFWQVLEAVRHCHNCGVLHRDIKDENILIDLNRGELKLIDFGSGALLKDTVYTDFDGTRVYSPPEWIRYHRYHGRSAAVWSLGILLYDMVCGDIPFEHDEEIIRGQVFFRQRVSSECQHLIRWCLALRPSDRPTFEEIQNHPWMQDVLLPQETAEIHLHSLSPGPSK

Row | IC50 [1, 3] [nM] | IC50 [2] [nM] | Compound | IC50 [1] [nM]
1 | 2 | 3.1 | Cn1c(Nc2ccccc2)nc2c(-c3cc4c([nH]3)CCNC4=O)cccc2c1=O [Example 266, 3-methyl-8-(4-oxo-4,5,6,7-tetrahydro-1H-pyrrolo[3,2-c]pyridin-2-yl)-2-(phenylamino)quinazolin-4(3H)-one] | 
2 |  | 0.501 | Cc1nc2cccc(-c3cc4c([nH]3)[C@@H](C)NC4=O)c2nc1N[C@H]1CCC[C@@H](NCC(F)(F)F)C1 [Example 487, (6R)-6-methyl-2-(2-methyl-3-(((1S,3R)-3-((2,2,2-trifluoroethyl)amino)cyclohexyl)amino)-5-quinoxalinyl)-5,6-dihydropyrrolo[3,4-b]pyrrol-4(1H)-one] | 
3 | 2.8 | 4.2 | CC(C)(C)Nc1nc2c(-c3cc4c([nH]3)CCNC4=O)cccc2nc1C(F)(F)F [Example 224, 2-(3-(tert-butylamino)-2-(trifluoromethyl)quinoxalin-5-yl)-6,7-dihydro-1H-pyrrolo[3,2-c]pyridin-4(5H)-one] | 
4 |  | 0.07 | C[C@H]1NC(=O)c2cc(-c3c(F)ccc4c(=O)n(C5CC5)c(NC5(C)CCC5)nc34)[nH]c21 [Example 498, 3-Cyclopropyl-7-fluoro-2-((1-methylcyclobutyl)amino)-8-((6R)-6-methyl-4-oxo-1,4,5,6-tetrahydropyrrolo[3,4-b]pyrrol-2-yl)-4(3H)-quinazolinone] | 
5 | 15 | 14 | C[C@H]1NC(=O)c2cc(-c3cccc4c(=O)n(C)c(N[C@@H]5CCC[C@H](NC(=O)OC(C)(C)C)C5)nc34)[nH]c21 (racemic) [Example 509, (rac)-tert-butyl ((cis)-3-((3-methyl-8-((R)-6-methyl-4-oxo-1,4,5,6-tetrahydropyrrolo[3,4-b]pyrrol-2-yl)-4-oxo-3,4-dihydroquinazolin-2-yl)amino)cyclohexyl)carbamate] | 
6 | 39.5 | 44.4 | Cc1nc2cccc(-c3cc4c([nH]3)CCNC4=O)c2nc1NC(C)(C)CS(C)(=O)=O [Example 274, 2-(3-((1,1-dimethyl-2-(methylsulfonyl)ethyl)amino)-2-methyl-5-quinoxalinyl)-1,5,6,7-tetrahydro-4H-pyrrolo[3,2-c]pyridin-4-one] | 
7 | 44.7 | 54.2 | Cc1nc2cccc(-c3cc4c([nH]3)CCNC4=O)c2nc1OCC(C)(C)C [Example 152, 2-(2-methyl-3-(neopentyloxy)quinoxalin-5-yl)-6,7-dihydro-1H-pyrrolo[3,2-c]pyridin-4(5H)-one] | 
8 | 403 | 149 | Cc1nc2cccc(-c3cc4c([nH]3)CCNC4=O)c2nc1N[C@@H]1CCCN(C(=O)OC(C)(C)C)C1 [Example 52, tert-butyl (3R)-3-((3-methyl-8-(4-oxo-4,5,6,7-tetrahydro-1H-pyrrolo[3,2-c]pyridin-2-yl)-2-quinoxalinyl)amino)-1-piperidinecarboxylate] | 
9 | 0.0741 | 0.029 | CCn1c(NC(C)(C)C)nc2c(-c3cc4c([nH]3)[C@@H](C)NC4=O)c(F)ccc2c1=O [Example 512, (R)-2-(tert-Butylamino)-3-ethyl-7-fluoro-8-(6-methyl-4-oxo-1,4,5,6-tetrahydropyrrolo[3,4-b]pyrrol-2-yl)quinazolin-4(3H)-one] | 
10 | 1.7 | 3.1 | CCCCNc1nc2c(-c3cc4c([nH]3)CCNC4=O)cccc2nc1C [Example 159, 2-(3-(butylamino)-2-methylquinoxalin-5-yl)-6,7-dihydro-1H-pyrrolo[3,2-c]pyridin-4(5H)-one] | 
11 | 7.66 | 3.98 | C[C@H]1NC(=O)c2cc(-c3cccc4c(N)nc(NC(C)(C)C)nc34)[nH]c21 [Example 484, (6R)-2-(4-amino-2-(tert-butylamino)-8-quinazolinyl)-6-methyl-5,6-dihydropyrrolo[3,4-b]pyrrol-4(1H)-one] | 
12 | 4.32 | 4.97 | Cc1nc2cccc(-c3cc4c([nH]3)CCNC4=O)c2nc1NC(C)C(F)(F)F (stereo in doubt) [Example 256, (R)-2-(2-methyl-3-((1,1,1-trifluoropropan-2-yl)amino)quinoxalin-5-yl)-6,7-dihydro-1H-pyrrolo[3,2-c]pyridin-4(5H)-one] | 
13 | 0.3 | 0.9 | C[C@H]1NC(=O)c2cc(-c3cccc4c(=O)n(CCCS(C)(=O)=O)c(NC(C)(C)C)nc34)[nH]c21 [Example 508, (R)-2-(tert-butylamino)-8-(6-methyl-4-oxo-1,4,5,6-tetrahydropyrrolo[3,4-b]pyrrol-2-yl)-3-(3-(methylsulfonyl)propyl)quinazolin-4(3H)-one] | 
14 | 3 | 0.7 | Cc1nc2cccc(-c3cc4c([nH]3)CCNC4=O)c2nc1N[C@H]1CCNC1 [Example 55, 2-(2-methyl-3-((3S)-3-pyrrolidinylamino)-5-quinoxalinyl)-1,5,6,7-tetrahydro-4H-pyrrolo[3,2-c]pyridin-4-one] | 
15 | 0.2 | 0.2 | C[C@H]1NC(=O)c2cc(-c3cccc4c(=O)n(C5CC5)c(NC5(C)CCC5)nc34)[nH]c21 [Example 496, (R)-3-cyclopropyl-8-(6-methyl-4-oxo-1,4,5,6-tetrahydropyrrolo[3,4-b]pyrrol-2-yl)-2-((1-methylcyclobutyl)amino)quinazolin-4(3H)-one] | 
16 | 24.4 | 13.7 | CC(=O)N1CCC(Nc2nc3c(-c4cc5c([nH]4)CCNC5=O)cccc3nc2C)CC1 [Example 50, 2-(3-((1-acetyl-4-piperidinyl)amino)-2-methyl-5-quinoxalinyl)-1,5,6,7-tetrahydro-4H-pyrrolo[3,2-c]pyridin-4-one] | 
17 | 1690 | 1120 | Cc1nc2cccc(-c3cc4c(=O)[nH]cnc4[nH]3)c2nc1F [Example 264, 6-(3-fluoro-2-methylquinoxalin-5-yl)-3H-pyrrolo[2,3-d]pyrimidin-4(7H)-one] | 
18 | 0.599 | 0.255 | Cc1nc2cccc(-c3[nH]c4c(c3Cl)C(=O)N[C@@H]4C)c2nc1NC1(C)CC1 [Example 454, (R)-3-chloro-6-methyl-2-(2-methyl-3-((1-methylcyclopropyl)amino)quinoxalin-5-yl)-5,6-dihydropyrrolo[3,4-b]pyrrol-4(1H)-one] | 
19 |  | 0.5 | Cc1nc2cccc(-c3cc4c([nH]3)CCNC4=O)c2nc1N[C@H]1C[C@H](N)C1 [Example 437, 2-(3-(((1r,3r)-3-aminocyclobutyl)amino)-2-methylquinoxalin-5-yl)-6,7-dihydro-1H-pyrrolo[3,2-c]pyridin-4(5H)-one hydrochloride] | 
20 | 0.7 | 0.8 | Cc1nc2cccc(-c3cc4c([nH]3)C(C)CNC4=O)c2nc1NC1CC1 (single isomer, unassigned) [Example 161, 2-(3-(cyclopropylamino)-2-methylquinoxalin-5-yl)-7-methyl-6,7-dihydro-1H-pyrrolo[3,2-c]pyridin-4(5H)-one] | 
21 | 21 | 18.9 | Cc1nc2cccc(-c3cc4c(=O)[nH]cnc4[nH]3)c2nc1N [Example 262, 6-(3-amino-2-methylquinoxalin-5-yl)-3H-pyrrolo[2,3-d]pyrimidin-4(7H)-one] | 
22 | 0.8 | 0.8 | CC[C@H]1NC(=O)c2cc(-c3cccc4c(=O)n(C)c(NC(C)(C)C)nc34)[nH]c21 [Example 505, (R)-2-(tert-butylamino)-8-(6-ethyl-4-oxo-1,4,5,6-tetrahydropyrrolo[3,4-b]pyrrol-2-yl)-3-methylquinazolin-4(3H)-one] | 
23 | 0.16 | 0.28 | Cc1nc2cccc(-c3cc4c([nH]3)[C@@H](C)NC4=O)c2nc1N[C@H]1CCC[C@@H](NC(=O)[C@H](N)CO)C1 [Example 497, N-((1R,3S)-3-((3-methyl-8-((6R)-6-methyl-4-oxo-1,4,5,6-tetrahydropyrrolo[3,4-b]pyrrol-2-yl)-2-quinoxalinyl)amino)cyclohexyl)-D-serinamide] | 
24 | 34.9 | 13.2 | Cc1nc2cccc(-c3cc4c([nH]3)CCNC4=O)c2nc1NC1CCN(C(=O)OC(C)(C)C)CC1 [Example 47, tert-butyl 4-((3-methyl-8-(4-oxo-4,5,6,7-tetrahydro-1H-pyrrolo[3,2-c]pyridin-2-yl)-2-quinoxalinyl)amino)-1-piperidinecarboxylate] | 
25 | 0.671 | 0.287 | C[C@H]1NC(=O)c2cc(-c3cccc4c(=O)n(C5CCOCC5)c(NC(C)(C)C)nc34)[nH]c21 [Example 514, (R)-2-(tert-butylamino)-8-(6-methyl-4-oxo-1,4,5,6-tetrahydropyrrolo[3,4-b]pyrrol-2-yl)-3-(tetrahydro-2H-pyran-4-yl)quinazolin-4(3H)-one] | 
26 | 0.5 | 1 | Cc1nc2cccc(-c3cc4c([nH]3)C(C)CNC4=O)c2nc1NC1CC1 (single isomer, unassigned) [Example 160, 2-(3-(cyclopropylamino)-2-methylquinoxalin-5-yl)-7-methyl-6,7-dihydro-1H-pyrrolo[3,2-c]pyridin-4(5H)-one] | 
27 | 0.1 |  | C[C@H]1NC(=O)c2cc(-c3cccc4c(=O)n(C)c(N[C@H]5CCC[C@@H](N)C5)nc34)[nH]c21 (racemic) [Example 506, (rac)-2-(((cis)-3-aminocyclohexyl)amino)-3-methyl-8-((6R)-6-methyl-4-oxo-1,4,5,6-tetrahydropyrrolo[3,4-b]pyrrol-2-yl)-4(3H)-quinazolinone] | 
28 |  | 1.2 | (R)-2-(3-(cyclopropylamino)-6-fluoro-2-methylquinoxalin-5-yl)-6-methyl-5,6-dihydropyrrolo[3,4-b]pyrrol-4(1H)-one [Example 284] | 

Row | Compound | IC50 [1, 3] [nM] | IC50 [2] [nM] | IC50 [1] [nM]
29 | CC(=O)N1CC[C@H](Nc2nc3c(-c4cc5c([nH]4)CCNC5=O)cccc3nc2C)C1 [Example 65, (S)-2-(3-((1-acetylpyrrolidin-3-yl)amino)-2-methylquinoxalin-5-yl)-6,7-dihydro-1H-pyrrolo[3,2-c]pyridin-4(5H)-one] |  | 57.8 | 72.8
